# Source: patent US8623595B2, “Inactivation of reverse transcriptases by azido-diarylpyrimidines” (Photoimmune Biotechnology Inc., priority 2010, dated 2014)
# Like-named read-outs stand apart in the source and are kept apart here.
# System: HIV-1
# Details: for time within which capacity to inactivate HIV-1 reverse transcriptase was lost / permanence of HIV-1 reverse transcriptase inactivation: 10 nM compound, HIV-1 in MT-2 cells
# Experimental: MT-2 cells were contacted with HIV-1 TCID50, and 0, 2, 10, 20, or 50 nM of either DAPY (TMC120-R147681) or azido-DAPY were placed on 50μ/well plates. The plates were placed on ice for 20 minutes and then irradiated at 7.5 cm from a UV light source (UVP lamp model UVGL-25) that provides UV light at a wavelength of 365 nm and an intensity of 1.14 W/cm^2 for a period of 20 minutes. Studies of HIV-1 infected MT-2 cells contacted with DAPY but not UV irradiated, and HIV-1 infected MT-2 cells that were irradiated but not contacted with DAPY or azido-DAPY were also performed.
# The inactivation of HIV was evaluated by a reverse transcriptase activity assay as described by Xu et al. (2009). The measurements are provided in counts per minute (cpm).
smiles,measurement,setting,value
"Cc1cc(C)c(Nc2ccnc(Nc3ccc(C#N)cc3)n2)c(C)c1 [DAPY, dapivirine]",time within which capacity to inactivate HIV-1 reverse transcriptase was lost,with UV light treatment,≤ 16 days
same,permanence of HIV-1 reverse transcriptase inactivation,with UV light,inability to produce a permanent inactivation
same,time within which capacity to inactivate HIV-1 reverse transcriptase was lost,without UV light treatment,≤ 16 days
same,permanence of HIV-1 reverse transcriptase inactivation,without UV light,inability to produce a permanent inactivation
same,inactivation of HIV-1 in time-exposure studies,"compound + UV light exposure, time-exposure studies",not observed
